We go through 28 molecules from US10130633B2, “Compounds” (BAYER PHARMA AKTIENGESELLSCHAFT, priority 2013, dated 2018).

Molecules are shown by their SMILES.

For one experiment, the system named is HEK293 FOP control reporter cell line. The experiment is described as follows: HEK293 FOP control reporter assay. The format is cell-based, human. The note with it: HEK293 FOP control cells, EC50 concentration of recombinant Wnt-3a, 16 hours; read-out: HEK FOP IC50. As to the method: Measurement of luciferase expression was done as described for the constitutive active Wnt assay.
In a parallel approach, HEK293 cells were cotransfected with the FOP control vector and pcDNA3. The FOP vector is identical to the TOP construct, but it contains instead of functional TCF elements a randomized, non-functional sequence. For this transfection a stable transfected cell line was generated as well, based on selection with Geneticin (1 mg/ml).
On the technique in general: In a reporter assay the amount or activity of a reporter protein is the signal.
Turning to `C[C@@H](C(=O)Nc1cc(C(=O)Nc2ccc(-c3ccccc3F)nc2)ccc1OC(F)(F)F)N1CCOCC1` (single isomer, unassigned) [Example 9, N-[6-(2-fluorophenyl)pyridin-3-yl]-3-{[(2S)-2-(morpholin-4-yl)propanoyl]amino}-4-(trifluoromethoxy)benzamide or N-[6-(2-fluorophenyl)pyridin-3-yl]-3-{[(2R)-2-(morpholin-4-yl)propanoyl]amino}-4-(trifluoromethoxy)benzamide], the IC50 turned out to be 8.2 µM.

Staying with this experiment, now noted: Homo sapiens, HEK293, 16 h; read-out: HEK FOP IC50.
Consider `O=C(CN1CCOCC1)Nc1cc(C(=O)Nc2ncc(-c3ccccc3)s2)ccc1OC(F)(F)F` [Example 14, 3-[(morpholin-4-ylacetyl)amino]-N-(5-phenyl-1,3-thiazol-2-yl)-4-(trifluoromethoxy)benzamide], for which the IC50 is at least 50 µM. As to `COc1ccc(NC(=O)c2ncc(-c3ccccc3)o2)cc1NC(=O)CN1CCOCC1` [Example 20, N-{4-methoxy-3-[(morpholin-4-ylacetyl)amino]phenyl}-5-phenyl-1,3-oxazole-2-carboxamide], the half-maximal inhibitory concentration (IC50) is at least 50 µM. The same measure, in the same setting: the same measure for `O=C(CN1CCOCC1)Nc1cc(NC(=O)c2ccc(-c3cccc(F)c3F)nc2)ccc1OC(F)(F)F` [Example 26, 6-(2,3-difluorophenyl)-N-{3-[(morpholin-4-ylacetyl)amino]-4-(trifluoromethoxy)phenyl}nicotinamide]: at least 50 µM; for `O=C(CN1CCOCC1)Nc1cc(NC(=O)c2ccc(-c3cc(F)cc(F)c3)nc2)ccc1OC(F)(F)F` [Example 27, 6-(3,5-difluorophenyl)-N-{3-[(morpholin-4-ylacetyl)amino]-4-(trifluoromethoxy)phenyl}nicotinamide]: at least 50 µM.

With `COc1ccc(-c2ccc(C(=O)Nc3ccc(OC)c(NC(=O)CN4CCOCC4)c3)s2)cc1` [Example 35, N-{4-methoxy-3-[(morpholin-4-ylacetyl)amino]phenyl}-5-(4-methoxyphenyl)thiophene-2-carboxamide], the IC50 is at least 50 µM.

As for `O=C(Nc1nnc(-c2ccccc2)s1)c1ccc(OC(F)F)c(NC(=O)C2(N3CCOCC3)CC2)c1` [Example 37, 4-(difluoromethoxy)-3-({[1-(morpholin-4-yl)cyclopropyl]carbonyl}amino)-N-(5-phenyl-1,3,4-thiadiazol-2-yl)benzamide], the IC50 was at least 50 µM.

Take `O=C(Nc1nnc(-c2ccccc2)s1)c1ccc(OC(F)F)c(NC(=O)C2(N3CCN(C4CC4)CC3)CC2)c1` [Example 38, 3-({[1-(4-cyclopropylpiperazin-1-yl)cyclopropyl]carbonyl}amino)-4-(difluoromethoxy)-N-(5-phenyl-1,3,4-thiadiazol-2-yl)benzamide]: the IC50 was at least 50 µM.

In the case of `O=C(CN1CCN(C2CC2)CC1)Nc1cc(C(=O)Nc2nnc(-c3ccccc3)s2)ccc1OC(F)F` [Example 41, 3-{[(4-cyclopropylpiperazin-1-yl)acetyl]amino}-4-(difluoromethoxy)-N-(5-phenyl-1,3,4-thiadiazol-2-yl)benzamide], the half-inhibitory concentration (IC50) was at least 50 µM. Take `COCc1ccc(C(=O)Nc2nnc(-c3ccccc3)s2)cc1NC(=O)C1(N2CCN(C3CC3)CC2)CC1` [Example 44, 3-({[1-(4-cyclopropylpiperazin-1-yl)cyclopropyl]carbonyl}amino)-4-(methoxymethyl)-N-(5-phenyl-1,3,4-thiadiazol-2-yl)benzamide]: the IC50 was at least 50 µM. Turning to `CN1CCN(C2(C(=O)Nc3cc(C(=O)Nc4nnc(-c5ccccc5)s4)ccc3CS(C)(=O)=O)CC2)CC1` [Example 49, 3-({[1-(4-methylpiperazin-1-yl)cyclopropyl]carbonyl}amino)-4-[(methylsulfonyl)methyl]-N-(5-phenyl-1,3,4-thiadiazol-2-yl)benzamide], the IC50 is at least 50 µM.

With `O=C(Nc1nnc(-c2ccccc2)s1)c1ccc(OC(F)(F)F)c(NC(=O)C2(N3CCOCC3)CC2)c1` [Example 50, 3-({[1-(morpholin-4-yl)cyclopropyl]carbonyl}amino)-N-(5-phenyl-1,3,4-thiadiazol-2-yl)-4-(trifluoromethoxy)benzamide], the half-inhibitory concentration (IC50) was at least 50 µM. `O=C(Nc1nnc(-c2ccccc2)s1)c1ccc(OC(F)(F)F)c(NC(=O)C2(N3CCN(C4CC4)CC3)CC2)c1` [Example 51, 3-({[1-(4-cyclopropylpiperazin-1-yl)cyclopropyl]carbonyl}amino)-N-(5-phenyl-1,3,4-thiadiazol-2-yl)-4-(trifluoromethoxy)benzamide]: the IC50 is at least 50 µM.

For `O=C(CN1CCN(C2CC2)CC1)Nc1cc(C(=O)Nc2nnc(-c3ccccc3)s2)ccc1OC(F)(F)F` [Example 53, 3-{[(4-cyclopropylpiperazin-1-yl)acetyl]amino}-N-(5-phenyl-1,3,4-thiadiazol-2-yl)-4-(trifluoromethoxy)benzamide], the IC50 was at least 50 µM.

As for `CC(C(=O)Nc1cc(C(=O)Nc2nnc(-c3ccccc3)s2)ccc1OC(F)(F)F)N1CCN(C)CC1` (stereo not shown) [Example 58, 3-{[2-(4-methylpiperazin-1-yl)propanoyl]amino}-N-(5-phenyl-1,3,4-thiadiazol-2-yl)-4-(trifluoromethoxy)benzamide], the IC50 was at least 50 µM.

As for `O=C(Nc1ccc(OC(F)(F)F)c(NC(=O)C2(N3CCOCC3)CC2)c1)c1ccc(-c2ccccc2)nc1` [Example 61, N-[3-({[1-(morpholin-4-yl)cyclopropyl]carbonyl}amino)-4-(trifluoromethoxy)phenyl]-6-phenylnicotinamide], the IC50 was at least 50 µM. In the case of `O=C(CN1CCN(C2CC2)CC1)Nc1cc(C(=O)Nc2ccc(-c3ccccc3F)nc2)ccc1OC(F)(F)F` [Example 63, 3-{[(4-cyclopropylpiperazin-1-yl)acetyl]amino}-N-[6-(2-fluorophenyl)pyridin-3-yl]-4-(trifluoromethoxy)benzamide], the IC50 is at least 50 µM. `CC(C(=O)Nc1cc(C(=O)Nc2ccc(-c3ccccc3F)nc2)ccc1OC(F)(F)F)N1CCN(C)CC1` (stereo not shown) [Example 64, N-[6-(2-fluorophenyl)pyridin-3-yl]-3-{[2-(4-methylpiperazin-1-yl)propanoyl]amino}-4-(trifluoromethoxy)benzamide]: the IC50 is at least 50 µM.

With `O=C(Nc1ccc(-c2ccccc2F)nc1)c1ccc(OC(F)(F)F)c(NC(=O)C2(N3CCN(C4CC4)CC3)CC2)c1` [Example 67, 3-({[1-(4-cyclopropylpiperazin-1-yl)cyclopropyl]carbonyl}amino)-N-[6-(2-fluorophenyl)pyridin-3-yl]-4-(trifluoromethoxy)benzamide], the IC50 is at least 50 µM. For `O=C(Nc1ccc(-c2ccccc2F)nc1)c1ccc(OC(F)(F)F)c(NC(=O)C2(N3CCOCC3)CC2)c1` [Example 68, N-[6-(2-fluorophenyl)pyridin-3-yl]-3-({[1-(morpholin-4-yl)cyclopropyl]carbonyl}amino)-4-(trifluoromethoxy)benzamide], the IC50 was at least 50 µM. Regarding `O=C(Nc1ccc(-c2cc(F)cc(F)c2)nc1)c1ccc(OC(F)(F)F)c(NC(=O)C2(N3CCOCC3)CC2)c1` [Example 71, N-[6-(3,5-difluorophenyl)pyridin-3-yl]-3-({[1-(morpholin-4-yl)cyclopropyl]carbonyl}amino)-4-(trifluoromethoxy)benzamide], the IC50 is at least 50 µM.

Consider `NC(=O)c1ccc(C(=O)Nc2ccc(-c3ccccc3F)nc2)cc1NC(=O)C1(N2CCOCC2)CC1` [Example 75, N^4-[6-(2-fluorophenyl)pyridin-3-yl]-2-({[1-(morpholin-4-yl)cyclopropyl]carbonyl}amino)terephthalamide], for which the IC50 is at least 50 µM. Turning to `Cc1ccc(C(=O)Nc2ccc(-c3ccccc3F)nc2)cc1NC(=O)C1(N2CCOCC2)CC1` [Example 76, N-[6-(2-fluorophenyl)pyridin-3-yl]-4-methyl-3-({[1-(morpholin-4-yl)cyclopropyl]carbonyl}amino)benzamide], the IC50 was at least 50 µM. For `O=C(Nc1ccc(-c2ccccc2)cn1)c1ccc(OC(F)(F)F)c(NC(=O)C2(N3CCOCC3)CC2)c1` [Example 95, 3-({[1-(morpholin-4-yl)cyclopropyl]carbonyl}amino)-N-(5-phenylpyridin-2-yl)-4-(trifluoromethoxy)benzamide], the IC50 is at least 50 µM. As to `CC(C(=O)Nc1cc(C(=O)Nc2ccc(-c3ccc(N)cc3)nc2)ccc1OC(F)(F)F)N1CCOCC1` (stereo not shown) [Example 111, N-[6-(4-aminophenyl)pyridin-3-yl]-3-{[2-(morpholin-4-yl)propanoyl]amino}-4-(trifluoromethoxy)benzamide], the IC50 was at least 50 µM. As to `CC(=O)Nc1ccc(-c2ccc(NC(=O)c3ccc(OC(F)(F)F)c(NC(=O)C(C)N4CCOCC4)c3)cn2)cc1` (stereo not shown) [Example 113, N-[6-(4-acetamidophenyl)pyridin-3-yl]-3-{[2-(morpholin-4-yl)propanoyl]amino}-4-(trifluoromethoxy)benzamide], the IC50 is at least 50 µM. On to `O=C(Nc1ccc(-c2ccccc2F)nc1)c1ccc(OC2CC2)c(NC(=O)C2(N3CCN(C4CC4)CC3)CC2)c1` [Example 136, 4-(cyclopropyloxy)-3-({[1-(4-cyclopropylpiperazin-1-yl)cyclopropyl]carbonyl}amino)-N-[6-(2-fluorophenyl)pyridin-3-yl]benzamide], for which the IC50 is at least 50 µM.

For `CN1CCN(CC(=O)Nc2cc(C(=O)Nc3nnc(-c4cccc(Cl)c4)s3)ccc2OC(F)(F)F)CC1` [Example 151, N-[5-(3-chlorophenyl)-1,3,4-thiadiazol-2-yl]-3-{[(4-methylpiperazin-1-yl)acetyl]amino}-4-(trifluoromethoxy)benzamide], the IC50 was at least 50 µM.

A word on the IC50: it is the concentration at which inhibition is half-maximal.
